Experimental data taken from ChEMBL document CHEMBL4673175, “An epigrammatic status of the azole-based antimalarial drugs” (RSC Med Chem, 2020).
≈ marks a conversion by molar mass, not a printed value.

Test system: Plasmodium falciparum
Experiment: Antimalarial activity against chloroquine sensitive Plasmodium falciparum assessed as reduction in parasite growth incubated for 48 hrs
Type: functional, organism-based
Conditions: not given
Molecule `COc1ccc(C2=NC3Nc4ccccc4N3C(c3c(C)nn(-c4ccccc4)c3-n3cncn3)=C2)cc1` (stereo not drawn) has an IC50 of 0.03 µg/mL (≈ 0.0599 µM).
In the case of `Cc1nn(-c2ccccc2)c(-n2ccnc2)c1C1CC(c2ccccc2)=NO1` (stereo not drawn), the IC50 is reported as 0.012 µg/mL (≈ 0.0325 µM).
`Cc1nn(-c2ccccc2)c(-n2ccnc2)c1C1CC(c2ccccc2)=NN1` (stereo not drawn) showed an IC50 of 0.012 µg/mL (≈ 0.0326 µM).
In the case of `COc1ccc(C2=NNC(c3c(C)nn(-c4ccccc4)c3-n3cnc(C)c3)C2)cc1` (stereo not drawn), the IC50 is reported as 0.012 µg/mL (≈ 0.0291 µM).
`COc1ccc(C2=NOC(c3c(C)nn(-c4ccccc4)c3-n3cnc(C)c3)C2)cc1` (stereo not drawn) showed an IC50 of 0.012 µg/mL (≈ 0.029 µM).
In the case of `Cc1nn(-c2ccccc2)c(-n2ccnc2)c1C1=CC(c2cccs2)=NC2Nc3ccccc3N12` (stereo not drawn), the IC50 is reported as 0.03 µg/mL (≈ 0.0631 µM).
With `Cc1nn(-c2ccccc2)c(-n2ccnc2)c1C1CC(c2ccc(-c3ccccc3)cc2)=NN1` (stereo not drawn) the IC50 was 0.012 µg/mL (≈ 0.027 µM).
`Cc1nn(-c2ccccc2)c(-n2cncn2)c1C1=CC(c2ccccc2)=NC2Nc3ccccc3N12` (stereo not drawn) gave an IC50 of 0.03 µg/mL (≈ 0.0638 µM).
Work on `Cc1nn(-c2ccccc2)c(-n2ccnc2)c1C1=CC(c2ccc(F)cc2)=NC2Nc3ccccc3N12` (stereo not drawn) yielded an IC50 of 0.03 µg/mL (≈ 0.0615 µM).
In the case of `Cc1cn(-c2c(C3CC(c4ccc(F)cc4)=NO3)c(C)nn2-c2ccccc2)cn1` (stereo not drawn), the IC50 is reported as 0.012 µg/mL (≈ 0.0299 µM).
`COc1ccc(C2=NOC(c3c(C)nn(-c4ccccc4)c3-n3ccnc3)C2)cc1` (stereo not drawn) showed an IC50 of 0.012 µg/mL (≈ 0.03 µM).
In the case of `Cc1cn(-c2c(C3CC(c4ccc(-c5ccccc5)cc4)=NN3)c(C)nn2-c2ccccc2)cn1` (stereo not drawn), the IC50 is reported as 0.012 µg/mL (≈ 0.0262 µM).
`Cc1cn(-c2c(C3CC(c4ccc(O)cc4)=NN3)c(C)nn2-c2ccccc2)cn1` (stereo not drawn) gave an IC50 of 0.012 µg/mL (≈ 0.0301 µM).
`Cc1nn(-c2ccccc2)c(-n2ccnc2)c1C1CC(c2ccc(-c3ccccc3)cc2)=NO1` (stereo not drawn) gave an IC50 of 0.012 µg/mL (≈ 0.0269 µM).
For `Cc1nn(-c2ccccc2)c(-n2ccnc2)c1C1CC(c2ccc(Br)cc2)=NO1` (stereo not drawn), the IC50 was 0.012 µg/mL (≈ 0.0268 µM).
With `Cc1nn(-c2ccccc2)c(-n2ccnc2)c1C1=CC(c2ccc(O)cc2)=NC2Nc3ccccc3N12` (stereo not drawn) the IC50 was 0.03 µg/mL (≈ 0.0618 µM).
In the case of `Cc1cn(-c2c(C3CC(c4ccc(O)cc4)=NO3)c(C)nn2-c2ccccc2)cn1` (stereo not drawn), the IC50 is reported as 0.012 µg/mL (≈ 0.03 µM).
`Cc1nn(-c2ccccc2)c(-n2cncn2)c1C1=CC(c2cc[nH]c2)=NC2Nc3ccccc3N12` (stereo not drawn) showed an IC50 of 0.03 µg/mL (≈ 0.0653 µM).
`Cc1cn(-c2c(C3CC(c4ccccc4)=NN3)c(C)nn2-c2ccccc2)cn1` (stereo not drawn) showed an IC50 of 0.012 µg/mL (≈ 0.0314 µM).
`Cc1nn(-c2ccccc2)c(-n2ccnc2)c1C1CC(c2ccc(F)cc2)=NO1` (stereo not drawn) showed an IC50 of 0.012 µg/mL (≈ 0.031 µM).
In the case of `Cc1nn(-c2ccccc2)c(-n2cncn2)c1C1=CC(c2cccs2)=NC2Nc3ccccc3N12` (stereo not drawn), the IC50 is reported as 0.03 µg/mL (≈ 0.0629 µM).
`Cc1nn(-c2ccccc2)c(-n2ccnc2)c1C1CC(c2ccc(O)cc2)=NN1` (stereo not drawn) gave an IC50 of 0.012 µg/mL (≈ 0.0312 µM).
`Cc1nn(-c2ccccc2)c(-n2ccnc2)c1C1CC(c2ccc(F)cc2)=NN1` (stereo not drawn) gave an IC50 of 0.012 µg/mL (≈ 0.0311 µM).
Molecule `Cc1cn(-c2c(C3CC(c4ccccc4)=NO3)c(C)nn2-c2ccccc2)cn1` (stereo not drawn) has an IC50 of 0.012 µg/mL (≈ 0.0313 µM).
For `Cc1nn(-c2ccccc2)c(-n2ccnc2)c1C1=CC(c2cc[nH]c2)=NC2Nc3ccccc3N12` (stereo not drawn), the IC50 was 0.03 µg/mL (≈ 0.0654 µM).
Molecule `Cc1nn(-c2ccccc2)c(-n2cncn2)c1C1=CC(c2ccc(O)cc2)=NC2Nc3ccccc3N12` (stereo not drawn) has an IC50 of 0.03 µg/mL (≈ 0.0617 µM).
Work on `Cc1nn(-c2ccccc2)c(-n2cncn2)c1C1=CC(c2ccc(F)cc2)=NC2Nc3ccccc3N12` (stereo not drawn) yielded an IC50 of 0.03 µg/mL (≈ 0.0614 µM).
With `Cc1cn(-c2c(C3CC(c4ccc(Br)cc4)=NN3)c(C)nn2-c2ccccc2)cn1` (stereo not drawn) the IC50 was 0.012 µg/mL (≈ 0.026 µM).
With `COc1ccc(C2=NNC(c3c(C)nn(-c4ccccc4)c3-n3ccnc3)C2)cc1` (stereo not drawn) the IC50 was 0.012 µg/mL (≈ 0.0301 µM).

Test system: not listed separately
Experiment: Selectivity index, ratio of EC50 for cytotoxicity against […] cells to EC50 for antiplasmodial activity against Plasmodium falciparum FCR-3 ATCC 30932 infected in human erythrocytes
Type: toxicity, cell-based
Conditions: mouse, read-out: Ratio EC50
`CCn1c(=O)/c(=C2\Sc3ccccc3N2C)s/c1=C\c1cccc[n+]1CCO` showed a selectivity ratio of over 100.
Work on `CCn1c(=O)/c(=C2\Sc3ccccc3N2C)s/c1=C\c1cccc[n+]1C` yielded a selectivity ratio of over 100.
For `CN1/C(=c2\s/c(=C\c3cc[n+](C)cc3)n(Cc3ccccc3)c2=O)Sc2ccccc21`, the selectivity ratio was over 100.
In the case of `CCn1c(=O)/c(=C2\Sc3ccccc3N2C)s/c1=C\c1cc[n+](C)cc1`, the selectivity ratio is reported as over 100.
Molecule `C=CCn1c(=O)/c(=C2\Sc3ccccc3N2C)s/c1=C\c1cc[n+](C)cc1` has a selectivity ratio of over 100.
`CCn1c(=O)/c(=C2\Sc3ccccc3N2C)s/c1=C\c1cc[n+](C)c2ccccc12` gave a selectivity ratio of over 100.
For `CCn1c(=O)/c(=C2\Sc3ccccc3N2C)s/c1=C\c1cccc(-c2ccccc2)[n+]1C`, the selectivity ratio was over 100.
`CCn1c(=O)/c(=C2\Sc3ccccc3N2C)s/c1=C/c1cc[n+](C)c(-c2ccccc2)c1` gave a selectivity ratio of over 100.
`CCn1c(=O)/c(=C2\Sc3ccccc3N2C)s/c1=C/c1cc[n+](CCCCC(=O)O)cc1` showed a selectivity ratio of over 100.
With `CCn1c(=O)/c(=C2\Sc3ccccc3N2C)s/c1=C\c1ccc2ccccc2[n+]1C` the selectivity ratio was over 100.
Work on `CN1/C(=c2\s/c(=C\c3cccc[n+]3C)n(Cc3ccccc3)c2=O)Sc2ccccc21` yielded a selectivity ratio of over 100.
`CCn1c(=O)/c(=C2\Sc3ccccc3N2C)s/c1=C\c1cccc[n+]1CCCCC(=O)O` gave a selectivity ratio of over 100.
With `CCn1c(=O)/c(=C2\Sc3ccccc3N2C)s/c1=C/c1cc[n+](CCO)cc1` the selectivity ratio was over 100.
For `C=CCn1c(=O)/c(=C2\Sc3ccccc3N2C)s/c1=C\c1cccc[n+]1C`, the selectivity ratio was over 100.

Test system: Plasmodium
Experiment: Antimalarial activity against Plasmodium
Type: functional
Conditions: not given
Molecule `C/C(=N\NC(=S)NCc1ccccc1)c1nc2cc(Cl)ccc2[nH]1` has an IC50 of 3 ng/mL (≈ 0.00838 µM).

Test system: Plasmodium falciparum
Experiment: Antiplasmodial activity against chloroquine sensitive Plasmodium falciparum FCR-3 infected in human erythrocytes incubated for 72 hrs by giemsa staining based assay
Type: functional, organism-based
Conditions: FCR-3, 72 h
Molecule `CCn1c(=O)/c(=C2\Sc3ccccc3N2C)s/c1=C\c1cccc[n+]1CCO` has an EC50 of 4 nM.
Work on `CCn1c(=O)/c(=C2\Sc3ccccc3N2C)s/c1=C\c1cccc[n+]1C` yielded an EC50 of 4 nM.
For `CN1/C(=c2\s/c(=C\c3cc[n+](C)cc3)n(Cc3ccccc3)c2=O)Sc2ccccc21`, the EC50 was 4 nM.
With `CCn1c(=O)/c(=C2\Sc3ccccc3N2C)s/c1=C\c1cc[n+](C)cc1` the EC50 was 4 nM.
Work on `C=CCn1c(=O)/c(=C2\Sc3ccccc3N2C)s/c1=C\c1cc[n+](C)cc1` yielded an EC50 of 4 nM.
`CCn1c(=O)/c(=C2\Sc3ccccc3N2C)s/c1=C\c1cc[n+](C)c2ccccc12` gave an EC50 of 4 nM.
In the case of `CCn1c(=O)/c(=C2\Sc3ccccc3N2C)s/c1=C\c1cccc(-c2ccccc2)[n+]1C`, the EC50 is reported as 4 nM.
For `CCn1c(=O)/c(=C2\Sc3ccccc3N2C)s/c1=C/c1cc[n+](C)c(-c2ccccc2)c1`, the EC50 was 4 nM.
In the case of `CCn1c(=O)/c(=C2\Sc3ccccc3N2C)s/c1=C/c1cc[n+](CCCCC(=O)O)cc1`, the EC50 is reported as 4 nM.
With `CCn1c(=O)/c(=C2\Sc3ccccc3N2C)s/c1=C\c1ccc2ccccc2[n+]1C` the EC50 was 4 nM.
`CN1/C(=c2\s/c(=C\c3cccc[n+]3C)n(Cc3ccccc3)c2=O)Sc2ccccc21` gave an EC50 of 4 nM.
In the case of `CCn1c(=O)/c(=C2\Sc3ccccc3N2C)s/c1=C\c1cccc[n+]1CCCCC(=O)O`, the EC50 is reported as 4 nM.
For `CCn1c(=O)/c(=C2\Sc3ccccc3N2C)s/c1=C/c1cc[n+](CCO)cc1`, the EC50 was 4 nM.
`C=CCn1c(=O)/c(=C2\Sc3ccccc3N2C)s/c1=C\c1cccc[n+]1C` gave an EC50 of 4 nM.
